Data from patent publication US4910196A, “Highly soluble antibacterially active organic salts of pyridobenzothiazines” (Mediolanum Farmaceutici Srl, priority 1986, dated 1990).
Where a name gives a salt, the structure may show the parent alone.

Tests used:
[1] = pH of the aqueous solution; type: physicochemical; settings: for pH: in solution in water
physchem = settings: water, Solubility in H2O

Row | Structure (SMILES) | pH [1] | water solubility [mg/mL] | pH values (in words) ([1]; in solution) | pH ([1]; listed as gluconate) | solubility (physchem) [mg/mL]
1 | CN1CCN(c2c(F)cc3c(=O)c(C(=O)O)cn4c3c2SCC4)CC1 [Salt with L-tartaric acid] | 4.09-4.10 | 6 |  |  | 
2 | CN1CCN(c2c(F)cc3c(=O)c(C(=O)O)cn4c3c2SCC4)CC1 [9-fluoro-10[N-(4'-methyl)piperazinyl]-7-oxo-2,3-dihydro-7H-pyrido[1,2,3 de][1,4]benzothiazine-6-carboxylic acid hydrochloride, reference compound] |  | 8 |  |  | 
3 | CN1CCN(c2c(F)cc3c(=O)c(C(=O)O)cn4c3c2SCC4)CC1 [methanesulphonate, 9-fluoro-10[N-(4'-methyl)piperazinyl]-7-oxo-2,3-dihydro-7H-pyrido[1,2,3 de][1,4]benzothiazine-6-carboxylic acid methanesulphonate] | approximately 3 | 87 |  |  | 
4 | CN1CCN(c2c(F)cc3c(=O)c(C(=O)O)cn4c3c2SCC4)CC1 [Salt with gluconic acid] | 5.07-5.10 | 360 | particularly high pH | about 5 | 360
5 | CN1CCN(c2c(F)cc3c(=O)c(C(=O)O)cn4c3c2SCC4)CC1 [Salt with malonic acid] | 4.22 | 3 |  |  | 
6 | CN1CCN(c2c(F)cc3c(=O)c(C(=O)O)cn4c3c2SCC4)CC1 [Salt with citric acid] | 3.99-4.00 | 2.7 |  |  | 
